Data reported in the supplement of paper PMC10627819.

Columns and labels:
S. pneumoniae D39V [1] = assay: fitness (endpoint OD595 vs no drug) (fraction); higher = more growth
Method in brief: (§1)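 Background-subtracted growth curves were the basis for fitness, taken as the optical density at entry into stationary phase over the robust mean of no-drug control wells. A cap of 1 was applied. The curves came from OD595 readings every 30 min for 14 h at 37 °C, in 384-well plates seeded at OD595 0.01 with 30 µl, or 55 µl for S. pneumoniae.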

B. subtilis 168 [2] = assay: as above
Method in brief: as §1

S. pneumoniae D39V [3] = assay: Bliss interaction score (quartile over a dose matrix) (fitness difference); higher = more antagonism (negative = synergy)
Method in brief: (§2)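 Combination data were used to infer fitness under each single drug. Fitness is the OD595 at entry into stationary phase divided by the robust mean of the plate's no-drug wells, with a cap of 1. The Bliss score is the observed minus the expected product fitness, summarised by quartiles over technical, biological and donor/recipient replicates.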

B. subtilis 168 [4] = assay: as above
Method in brief: as §2

S. aureus DSM 20231 = assay: as above
Method in brief: as §2

S. aureus Newman = assay: as above
Method in brief: as §2
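Throughout, for Bliss interaction score (quartile over a dose matrix): first quartile when negative (synergy) and third quartile when positive (antagonism).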

CCCCCCCCCC(=O)N[C@@H](Cc1c[nH]c2ccccc12)C(=O)N[C@H](CC(N)=O)C(=O)N[C@@H](CC(=O)O)C(=O)N[C@@H]1C(=O)NCC(=O)N[C@@H](CCCN)C(=O)N[C@@H](CC(=O)O)C(=O)N[C@H](C)C(=O)N[C@@H](CC(=O)O)C(=O)NCC(=O)N[C@H](CO)C(=O)N[C@@H]([C@H](C)CC(=O)O)C(=O)N[C@@H](CC(=O)c2ccccc2N)C(=O)O[C@@H]1C [Daptomycin] + C[C@H]1COc2c(N3CCN(C)CC3)c(F)cc3c(=O)c(C(=O)O)cn1c23 [Levofloxacin]
Conditions | fitness
B. subtilis 168 [2], first compound 0.125 µg/mL, partner 0.0312 µg/mL | 0.0386
B. subtilis 168 [2], first compound 0.125 µg/mL, partner 0.0625 µg/mL | 0.0435
B. subtilis 168 [2], first compound 0.125 µg/mL, partner 0.125 µg/mL | 0.0465
B. subtilis 168 [2], first compound 0.25 µg/mL, partner 0.002 µg/mL | 0.949
B. subtilis 168 [2], first compound 0.25 µg/mL, partner 0.0039 µg/mL | 0.95
B. subtilis 168 [2], first compound 0.25 µg/mL, partner 0.0312 µg/mL | 0.043
B. subtilis 168 [2], first compound 0.25 µg/mL, partner 0.0625 µg/mL | 0.0534
B. subtilis 168 [2], first compound 0.25 µg/mL, partner 0.125 µg/mL | 0.073
B. subtilis 168 [2], first compound 0.5 µg/mL, partner 0.002 µg/mL | 0.915
B. subtilis 168 [2], first compound 0.5 µg/mL, partner 0.0039 µg/mL | 0.904
B. subtilis 168 [2], first compound 0.5 µg/mL, partner 0.0312 µg/mL | 0.0448
B. subtilis 168 [2], first compound 0.5 µg/mL, partner 0.0625 µg/mL | 0.071
B. subtilis 168 [2], first compound 0.5 µg/mL, partner 0.125 µg/mL | 0.0639
S. pneumoniae D39V [1], first compound 1 µg/mL, partner 0.1725 µg/mL | 0.909
S. pneumoniae D39V [1], first compound 1 µg/mL, partner 0.2 µg/mL | 0.867
S. pneumoniae D39V [1], first compound 1 µg/mL, partner 0.345 µg/mL | 0.794
S. pneumoniae D39V [1], first compound 1 µg/mL, partner 0.4 µg/mL | 0.678
S. pneumoniae D39V [1], first compound 1 µg/mL, partner 0.69 µg/mL | 0.531
S. pneumoniae D39V [1], first compound 1 µg/mL, partner 0.8 µg/mL | 0.132
S. pneumoniae D39V [1], first compound 2 µg/mL, partner 0.1725 µg/mL | 0.917
S. pneumoniae D39V [1], first compound 2 µg/mL, partner 0.2 µg/mL | 0.88
S. pneumoniae D39V [1], first compound 2 µg/mL, partner 0.345 µg/mL | 0.813
S. pneumoniae D39V [1], first compound 2 µg/mL, partner 0.4 µg/mL | 0.675
S. pneumoniae D39V [1], first compound 2 µg/mL, partner 0.69 µg/mL | 0.366
S. pneumoniae D39V [1], first compound 2 µg/mL, partner 0.8 µg/mL | 0.165
S. pneumoniae D39V [1], first compound 4 µg/mL, partner 0.1725 µg/mL | 0.949
S. pneumoniae D39V [1], first compound 4 µg/mL, partner 0.2 µg/mL | 0.818
S. pneumoniae D39V [1], first compound 4 µg/mL, partner 0.345 µg/mL | 0.86
S. pneumoniae D39V [1], first compound 4 µg/mL, partner 0.4 µg/mL | 0.551
S. pneumoniae D39V [1], first compound 4 µg/mL, partner 0.69 µg/mL | 0.615
S. pneumoniae D39V [1], first compound 4 µg/mL, partner 0.8 µg/mL | 0.133

fitness, B. subtilis 168 [2], one replicate
Conditions | first compound 0.125 µg/mL | first compound 0.25 µg/mL | first compound 0.5 µg/mL | first compound 1 µg/mL
partner 0.001 µg/mL | 0.992 | ≥ 1 | 0.978 | –
partner 0.002 µg/mL | 0.949 | – | – | 0.753
partner 0.0039 µg/mL | 0.891 | – | – | 0.742
partner 0.0078 µg/mL | – | 0.829 | 0.882 | 0.723

Conditions | Bliss interaction score
B. subtilis 168 [4] | 0.0436
S. aureus DSM 20231 | -0.0494
S. aureus Newman | -0.0469
S. pneumoniae D39V [3] | -0.18

CCCCCCCCCC(=O)N[C@@H](Cc1c[nH]c2ccccc12)C(=O)N[C@H](CC(N)=O)C(=O)N[C@@H](CC(=O)O)C(=O)N[C@@H]1C(=O)NCC(=O)N[C@@H](CCCN)C(=O)N[C@@H](CC(=O)O)C(=O)N[C@H](C)C(=O)N[C@@H](CC(=O)O)C(=O)NCC(=O)N[C@H](CO)C(=O)N[C@@H]([C@H](C)CC(=O)O)C(=O)N[C@@H](CC(=O)c2ccccc2N)C(=O)O[C@@H]1C [Daptomycin] + C[C@H]1c2cccc(O)c2C(=O)C2=C(O)[C@]3(O)C(=O)C(C(N)=O)=C(O)[C@@H](N(C)C)[C@@H]3[C@@H](O)[C@@H]21 [Doxycycline]
fitness, one replicate
Conditions | first compound 1 µg/mL | first compound 2 µg/mL | first compound 4 µg/mL
B. subtilis 168 [2], partner 0.02 µg/mL | 0.624 | – | –
B. subtilis 168 [2], partner 0.04 µg/mL | 0.641 | – | –
B. subtilis 168 [2], partner 0.08 µg/mL | 0.188 | – | –
S. pneumoniae D39V [1], partner 0.003875 µg/mL | 0.928 | 0.934 | 0.981
S. pneumoniae D39V [1], partner 0.00775 µg/mL | 0.866 | 0.878 | 0.927

Conditions | fitness
B. subtilis 168 [2], first compound 0.125 µg/mL, partner 0.02 µg/mL | 0.857
B. subtilis 168 [2], first compound 0.125 µg/mL, partner 0.04 µg/mL | 0.794
B. subtilis 168 [2], first compound 0.125 µg/mL, partner 0.08 µg/mL | 0.605
B. subtilis 168 [2], first compound 0.25 µg/mL, partner 0.02 µg/mL | 0.871
B. subtilis 168 [2], first compound 0.25 µg/mL, partner 0.04 µg/mL | 0.757
B. subtilis 168 [2], first compound 0.25 µg/mL, partner 0.08 µg/mL | 0.595
B. subtilis 168 [2], first compound 0.5 µg/mL, partner 0.02 µg/mL | 0.83
B. subtilis 168 [2], first compound 0.5 µg/mL, partner 0.04 µg/mL | 0.771
S. pneumoniae D39V [1], first compound 1 µg/mL, partner 0.0155 µg/mL | 0.733
S. pneumoniae D39V [1], first compound 2 µg/mL, partner 0.0155 µg/mL | 0.738
S. pneumoniae D39V [1], first compound 4 µg/mL, partner 0.0155 µg/mL | 0.795

Conditions | Bliss interaction score
B. subtilis 168 [4] | 0.0559
S. aureus DSM 20231 | 0.0825
S. aureus Newman | 0.0504
S. pneumoniae D39V [3] | -0.249

C[C@H]1COc2c(N3CCN(C)CC3)c(F)cc3c(=O)c(C(=O)O)cn1c23 [Levofloxacin] + CC1=C\[C@@H](O)CC(=O)Cc2nc(co2)C(=O)N2CCC=C2C(=O)O[C@H](C(C)C)[C@H](C)/C=C/C(=O)NC\C=C\1 [Virginiamycin M1]
Conditions | fitness
B. subtilis 168 [2], first compound 0.0312 µg/mL, partner 0.0625 µg/mL | 0.0334
B. subtilis 168 [2], first compound 0.0312 µg/mL, partner 0.125 µg/mL | 0.0383
B. subtilis 168 [2], first compound 0.0312 µg/mL, partner 0.25 µg/mL | 0.0414
B. subtilis 168 [2], first compound 0.0625 µg/mL, partner 0.0625 µg/mL | 0.0348
B. subtilis 168 [2], first compound 0.0625 µg/mL, partner 0.125 µg/mL | 0.0328
B. subtilis 168 [2], first compound 0.0625 µg/mL, partner 0.25 µg/mL | 0.0437
B. subtilis 168 [2], first compound 0.125 µg/mL, partner 0.0625 µg/mL | 0.0353
B. subtilis 168 [2], first compound 0.125 µg/mL, partner 0.125 µg/mL | 0.0443
B. subtilis 168 [2], first compound 0.125 µg/mL, partner 0.25 µg/mL | 0.0489
S. pneumoniae D39V [1], first compound 0.1725 µg/mL, partner 0.5 µg/mL | 0.998
S. pneumoniae D39V [1], first compound 0.1725 µg/mL, partner 1 µg/mL | 0.992
S. pneumoniae D39V [1], first compound 0.1725 µg/mL, partner 2 µg/mL | 0.969
S. pneumoniae D39V [1], first compound 0.2 µg/mL, partner 2 µg/mL | 0.896
S. pneumoniae D39V [1], first compound 0.345 µg/mL, partner 0.5 µg/mL | 0.92
S. pneumoniae D39V [1], first compound 0.345 µg/mL, partner 1 µg/mL | 0.904
S. pneumoniae D39V [1], first compound 0.345 µg/mL, partner 2 µg/mL | 0.9
S. pneumoniae D39V [1], first compound 0.4 µg/mL, partner 2 µg/mL | 0.817
S. pneumoniae D39V [1], first compound 0.69 µg/mL, partner 0.5 µg/mL | 0.539
S. pneumoniae D39V [1], first compound 0.69 µg/mL, partner 1 µg/mL | 0.464
S. pneumoniae D39V [1], first compound 0.69 µg/mL, partner 2 µg/mL | 0.458
S. pneumoniae D39V [1], first compound 0.8 µg/mL, partner 2 µg/mL | 0.567

fitness, one replicate
Conditions | partner 0.0625 µg/mL | partner 0.125 µg/mL | partner 0.15 µg/mL | partner 0.25 µg/mL | partner 0.3 µg/mL | partner 0.5 µg/mL | partner 1 µg/mL
B. subtilis 168 [2], first compound 0.001 µg/mL | 0.869 | 0.947 | – | 0.969 | – | – | –
B. subtilis 168 [2], first compound 0.002 µg/mL | 0.949 | 0.971 | – | 0.936 | – | – | –
B. subtilis 168 [2], first compound 0.0039 µg/mL | 0.887 | 0.918 | – | 0.904 | – | – | –
S. pneumoniae D39V [1], first compound 0.2 µg/mL | – | – | 0.954 | – | 0.876 | 0.925 | 0.937
S. pneumoniae D39V [1], first compound 0.4 µg/mL | – | – | 0.921 | – | 0.913 | 0.834 | 0.832
S. pneumoniae D39V [1], first compound 0.8 µg/mL | – | – | 0.829 | – | 0.797 | 0.539 | 0.391

Conditions | Bliss interaction score
B. subtilis 168 [4] | 0.0195
S. aureus DSM 20231 | -0.0827
S. aureus Newman | -0.0223
S. pneumoniae D39V [3] | 0.0593
